ChEMBL document CHEMBL1134102, “The binding of arylguanidines at 5-HT(3) serotonin receptors: a structure-affinity investigation” (Bioorg Med Chem Lett, 2001)

molecular target: Serotonin 3 (5-HT3) receptor; assay: Binding affinity to 5-HT3 serotonin receptor in NG 108-15 neuroblastoma glioma cells using [3H]GR-65630 radioligand.

SMILES | Ki
N=C(N)Nc1cc(Cl)c(Cl)c(Cl)c1 | 0.0007 µM
N=C(N)NC(=N)Nc1cccc(Cl)c1 | 0.018 µM
NC(N)=Nc1cccc(Cl)c1 | 0.032 µM
Nc1nc(Nc2cccc(Cl)c2)n[nH]1 | > 10 µM
N=C(N)NC(=N)Nc1cc(Cl)c(Cl)c(Cl)c1 | 0.0027 µM
N=C(N)Nc1cc(Cl)cc(Cl)c1 | 0.005 µM
C/N=C(\N)Nc1cccc(Cl)c1 | 0.45 µM
Clc1cccc(NC2=NCCN2)c1 | > 10 µM
Cc1ccc(NC(=N)N=C(N)N)cc1 | 0.89 µM
COc1ccc(NC(=N)N)cc1 | 0.99 µM
NC(N)=Nc1ccc2ccccc2c1 | 0.018 µM
C/N=C(\NC)Nc1cccc(Cl)c1 | > 10 µM
N=C(N)N=C(N)Nc1cc(Cl)cc(Cl)c1 | 0.0018 µM
N=C(N)Nc1ccc(Cl)c(Cl)c1 | 0.0031 µM
N=C(N)Nc1ccc(Cl)cc1 | 0.326 µM
CN(C(=N)N)c1cccc(Cl)c1 | 6.2 µM
N=C(N)NC(=N)Nc1ccc(Cl)c(Cl)c1 | 0.012 µM
COc1ccc(NC(=N)N)cc1OC | 2.71 µM
N=C(N)N=C(N)Nc1ccc2ccccc2c1 | 0.014 µM
N=C(N)Nc1ccc(Cl)c(C(F)(F)F)c1 | 0.036 µM
Cc1ccc(NC(=N)N)cc1 | 0.442 µM
N=C(N)Nc1ccc(C(F)(F)F)cc1 | 0.23 µM
N=C(N)Nc1ccc2c(c1)OCO2 | 0.274 µM
NC(N)=Nc1cccc(C(F)(F)F)c1 | 2.44 µM
N=C(N)NC(=N)Nc1ccc(Cl)cc1 [4-CHLOROPHENYLBIGUANIDE] | 0.21 µM
